“And” between values parts separate entries of the source, which are not always exact repeats. Equal values may be shown once.
Assays:
zebrafish liver = experiment: Hepatoxicity assay in Tg(fabp10a:EGFP-mCherry) embryos; conditions: 10 μM, embryos treated from 3 dpf
Protocol: About 3 dpf, 50 embryos were distributed into 10 ml chemical solution/well (chemical/E3 solution) in 6-well plates until 5 dpf and new chemical solution was replaced every day. At 5 dpf, embryos were anesthetized with tricaine (0.016%) and the images of 8 to 10 embryos randomly per well were taken by ZEISS AxioCam MRc. There are three different images which one with auto exposure-time for the clearest view, one with fixed exposure-time to capture RFP (red fluorescent protein) intensity below saturation for intensity measurement and comparison, and the last one with sufficient exposure-time to show the whole liver region for size measurement. Image J software was then used to quantify intensity of RFP and liver size. Average RFP intensity in the liver was calculated and compared within the same group of lateral view fry under the same magnification and fixed exposure-time.
Images were analyzed by Image J software.

[1] = test system: ccne1, cdk1, cdk2, myca, mycb, ccnd1; experiment: qPCR of cell proliferation markers and beta-catenin downstream target genes in tert transgenic zebrafish; type: in vivo, zebrafish (Danio rerio); conditions: 0.5×(50 μM), 15 dpf, vs untreated
Protocol: (§1) 50 zebrafish larva were placed in a fish tank with 800 ml of system water, the water were refreshed every day at 4 pm. From day 5 to day 15, AB(WT) and tert transgenic zebrafish were fed with normal larva food, plus 20 ml of Paramecium, and there must be 2 hours between meals, four meals a day. The last meal must be fed after 1 hour before the water changed. […] The fish were fasting for one days before collecting the samples for RNA extraction and hematoxylin-eosin (H&E) staining.
Total RNA was isolated by NucleoSpin® RNA kit ([…]-NAGEL, USA). […]
The resulting first-strand cDNA was used as a template for […] PCR in triplicate by using the SYBR Green Q-PCR Master Mix Kit (Applied Biosystems) using an ABI PRISM 7900 System. After normalization to internal control actin, the expression ratio between the experimental and control groups was calculated using the comparative Ct method. The relative expression ratio (fold change) was calculated based on ΔΔCt, ΔΔCt=(Cttarget−Ctactin)treatment−(Cttarget−Ctactin)control, and fold change=2^−ΔΔ^Ct. […] At least three independent samples were used for Q-PCR, and the standard error was calculated and incorporated into the presented data as […]±standard error. Differences among variables were assessed by a two-tailed Student's t test. […]

[2] = test system: tert transgenic zebrafish; experiment: H&E staining of liver cells of tert transgenic zebrafish; type: in vivo, zebrafish (Danio rerio); conditions: 15 dpf
Protocol: as §1
After 1 month of RO injection, the fish was sacrificed, and the liver was taken out and divided into two parts for RNA isolation and paraffin section. The liver tissues were frozen in liquid nitrogen immediately after sectioning and stored at −80° C. for later RNA isolation. For histochemistry analysis, liver tissues were fixed in a 10% formalin solution (Sigma-Aldrich Inc., St. Louis, MO, USA). The fixed tissue was embedded in paraffin, and sectioned at 5-μm thickness mounted on poly-L-lysine coated slides, and the sections were stained with hematoxylin and eosin (H&E stain), which this part was performed by the Pathology core facility.
H&E staining is mainly to observe the states of mitotic figures, […] cells, and macronucleated cells that represent hepatocyte undergoes carcinogenesis.

Hep3B hepatoma cells = experiment: Xenotransplantation assay of cell proliferation in zebrafish embryos; type: in vivo, human; conditions: two days, zebrafish embryo xenotransplant
A375 cells = experiment: Cell proliferation assay I (PrestoBlue), A375; type: cell-based, human; conditions: 72 h; for A375 cell survival (%): vs control without drug
Protocol: (§2) U-87 MG cells (a human primary glioblastoma cell line) were cultured in MEM medium (Gibco, New York, NY, USA). A375 cells (a human melanoma cell line) and Huh7 cells (a human hepatocellular carcinoma (HCC) cell line) were cultured in DMEM medium (HyClone, Logan, UT, USA). The culture media were supplemented with 10% heat-inactivated fetal bovine serum (FBS), 1% penicillin/streptomycin and 1% […] (HyClone, Logan, UT, USA). Cells were seeded in 96-well plates at a density of 2000 cells/well. Then, cells were transferred to 37° C. incubator. […] At the end of incubation, the PrestoBlue™ Cell Viability Reagent (Invitrogen, Eugene, OR, USA) was distributed to cells. The plates were incubated for 90 min at 37° C. in a humidified, 5% CO2 atmosphere and the fluorescence was then recorded at Ex/Em: 560 nm/590 nm. Triplicate experiments were performed.

Huh7 cells = experiment: Cell proliferation assay I (PrestoBlue), Huh7; type: cell-based, human; conditions: 72 h; for Huh7 cell survival (%): vs control without drug
Protocol: as §2

U-87 MG cells = experiment: Cell proliferation assay I (PrestoBlue), U-87 MG; type: cell-based, human; conditions: 72 h; for U-87 MG cell survival (%): vs control without drug
Protocol: as §2

A375 = experiment: Cell proliferation assay II (MTS), A375; type: cell-based, human; conditions: A375, 72 h, mean ± SD
Protocol: (§3) Human lung cancer cell line NCI-H226 was purchased from the American type culture collection (CRL-5826). NCI-H226 was grown in RPMI supplemented with 10% FBS in a humidified atmosphere containing 5% CO2 at 37° C. Human melanoma cell line A375, human pharynx squamous cell carcinoma FaDu, human cervical epithelioid carcinoma HeLa and human chronic myelogenous leukemia K-562 were purchased from Bioresource Collection and Research Center (BCRC), Hsinchu 300, Taiwan. A375 cells were grown in DMEM supplemented with 10% FBS in a humidified atmosphere 5% CO2 at 37° C. FaDu cells were grown in DMEM supplemented with 10% FBS in a humidified atmosphere 5% CO2 at 37° C. HeLa cell were grown in DMEM supplemented with 10% FBS in a humidified atmosphere 5% CO2 at 37° C. […]
(§4) MTS/PMS solution was freshly prepared and added (20 μl per well) into each well of 96-well cultured plate. The assay plate was incubated for 3 hours at 37° C., 5% CO2, under humidified atmosphere, and measured the absorbance at 490 nm using Multiskan™ GO Microplate Spectrophotometer (Thermo Fisher Scientific).
(§5) Corrected absorbance values were obtained by subtracting the average 490 nm absorbance of the negative control wells (medium only, no cell, as background control) from all other absorbance values. Percentage inhibition of cell growth for compound treatment was calculated using this formula: […]

FaDu = experiment: Cell proliferation assay II (MTS), FaDu; type: cell-based, human; conditions: 72 h, mean ± SD
Protocol: as §3, §4, §5

HeLa = experiment: Cell proliferation assay II (MTS), HeLa; type: cell-based, human; conditions: 72 h, mean ± SD
Protocol: as §3, §4, §5

K-562 = experiment: Cell proliferation assay II (MTS), K-562; type: cell-based, human; conditions: K-562, 72 h, mean ± SD
Protocol: as §3, §4, §5

NCI-H226 = experiment: Cell proliferation assay II (MTS), NCI-H226; type: cell-based, human; conditions: NCI-H226, 72 h, mean ± SD
Protocol: as §3, §4, §5

U87 = experiment: Cell proliferation assay II (MTS), U87; type: cell-based, human; conditions: U87, 72 h, mean ± SD
Protocol: as §3, §4, §5

CNC(=O)c1cc(Oc2ccc(NC(=O)Nc3ccc(Cl)c(C(F)(F)F)c3)cc2)ccn1 [Sorafenib]
liver size vs DMSO treated control (zebrafish liver): significantly reduce liver size

cobalt-containing glutamic acid (COGA) complex
expression of cell proliferation markers (ccne1, cdk1, cdk2) and beta-catenin downstream target genes (myca, mycb, ccnd1) [1]: significantly reduced
number of mitotic figures, trinucleated cells, and macronucleated cells [2]: significantly reduced
hepatoma cell proliferation compared to the DMSO treatment (Hep3B hepatoma cells; 0.5×(50 μM)): significantly reduced
hepatoma cell proliferation compared to the DMSO treatment (Hep3B hepatoma cells; 1×(100 μM)): significantly reduced
A375 cell survival (%) (A375 cells; 5 nM): 110% and 104% and 105%
A375 cell survival (%) (A375 cells; 14 nM): 89% and 87% and 85%
A375 cell survival (%) (A375 cells; 41 nM): 74% and 71% and 68%
A375 cell survival (%) (A375 cells; 123 nM): 72% and 69% and 67%
A375 cell survival (%) (A375 cells; 370 nM): 69% and 68% and 62%
A375 cell survival (%) (A375 cells; 1111 nM): 70% and 71% and 67%
A375 cell survival (%) (A375 cells; 3333 nM): 77% and 76% and 72%
A375 cell survival (%) (A375 cells; 10000 nM): 89% and 88% and 84%
IC50 (A375 cells; A375 cells): 0.0687 ± 0.0158 µM
Huh7 cell survival (%) (Huh7 cells; 5 nM): 102% and 107% and 100%
Huh7 cell survival (%) (Huh7 cells; 14 nM): 88% and 92% and 84%
Huh7 cell survival (%) (Huh7 cells; 41 nM): 78% and 80% and 72%
Huh7 cell survival (%) (Huh7 cells; 123 nM): 73% and 77% and 71%
Huh7 cell survival (%) (Huh7 cells; 370 nM): 74% and 75% and 69%
Huh7 cell survival (%) (Huh7 cells; 1111 nM): 82% and 79% and 73%
Huh7 cell survival (%) (Huh7 cells; 3333 nM): 80% and 82% and 75%
Huh7 cell survival (%) (Huh7 cells; 10000 nM): 89% and 92% and 82%
IC50 (Huh7 cells; Huh7 cells): 0.287 ± 0.0618 µM
U-87 MG cell survival (%) (U-87 MG cells; 5 nM): 100% and 105% and 103%
U-87 MG cell survival (%) (U-87 MG cells; 14 nM): 95% and 97%
U-87 MG cell survival (%) (U-87 MG cells; 41 nM): 89% and 93%
U-87 MG cell survival (%) (U-87 MG cells; 123 nM): 89%
U-87 MG cell survival (%) (U-87 MG cells; 370 nM): 87% and 91% and 85%
U-87 MG cell survival (%) (U-87 MG cells; 1111 nM): 87% and 90% and 84%
U-87 MG cell survival (%) (U-87 MG cells; 3333 nM): 87% and 89% and 84%
U-87 MG cell survival (%) (U-87 MG cells; 10000 nM): 89% and 90% and 88%
IC50 (U-87 MG cells; U-87 MG cells): > 10 µM
IC50 (A375): 102 ± 2 µM
IC50 (FaDu): 74.6 ± 63 µM
IC50 (HeLa): 73.7 ± 19 µM
IC50 (K-562): 54.5 ± 4.4 µM
IC50 (NCI-H226): 45 µM and 44.5 µM
IC50 (U87): 42 µM

— US20240398829A1, “A COBALT-[…] AMINO ACID COMPLEX AND ITS USE FOR TREATING CANCER” (AMELIO BIOTECH CO., LTD., priority 2021, published 2024)
